Data from patent publication EP4647082A1, “PHARMACEUTICAL COMPOSITION COMPRISING A CGRP RECEPTOR ANTAGONIST FOR THE TREATMENT OF ACUTE MIGRAINE” (NUVIE BIO, Inc., priority 2024, dated 2025).
Like-named read-outs stand apart in the source and are kept apart here. Marks after values point to notes of the source that are not given here. Bridge positions count the residues as written; N and C are the ends. Square brackets hold non-standard residues; d marks the D form. Peptide text beside a SMILES is read from it. * marks the point of attachment. Phe(2-CONH2) = NC(=O)c1ccccc1C[C@H](N)C(=O)O; Orn(iPr) = CC(C)NCCC[C@H](N)C(=O)O; Oxazole2carbonyl = O=C(c1ncco1)*; 3Pal = N[C@@H](Cc1cccnc1)C(=O)O

Legend:
[1] = Phase I first-in-human study, pharmacokinetics after single ascending subcutaneous doses in healthy volunteers; format: in vivo; details: for level at 3 h: nominal time 3 h; for T10nM: time to 10 nM; for T30nM: time to 30 nM; for T100nM: time to 100 nM
Procedure: For Phase I clinical studies, the 32 mg/mL pharmaceutical composition was dosed subcutaneously. The Phase I clinical trial was a randomised, double-blind, placebo-controlled, first-in-human study of the safety, tolerability and pharmacokinetics of AXN-001 in healthy volunteers under Protocol No. AXN-001-01 .
The pharmacokinetic objective of the clinical trial was to provide pharmacokinetic analysis of AXN-001 following single ascending subcutaneous doses of AXN-001. The study design included the following Cohorts: • Cohort 1: Dose 1 mg (2 mg/mL formulation); • Cohort 2: Dose 2 mg (4 mg/mL formulation); • Cohort 3: Dose 4 mg (8 mg/mL formulation); • Cohort 4: Dose 8 mg (16 mg/mL formulation); • Cohort 5: Dose 16 mg (32 mg/mL formulation).
Participants were administered a single dose (0.5 mL) of AXN-001 or placebo via subcutaneous (SC) injection into the abdomen. Blood samples were collected at specified time points for pharmacokinetic analysis (5,10,15,20,30,45,60 minutes; 2,3,4,6,8,12,24 hours). Individual plasma concentrations of ANX-001 were determined and used for analyses.
Pharmacokinetic (PK) parameters of AXN-001 were determined using Phoenix WinNonlin version 8.3. All concentrations below the limit of quantification (BLQ) were set to zero for the purpose of the PK analysis. All AUC determinations were made using linear trapezoidal method. The following parameters were determined: Cmax Maximum observed concentration. as read directly from the observed data. Tmax Time to maximum concentration T10nM Time to 10 nM T30nM Time to 30 nM T100nM Time to 100 nM AUC0-t Area under the concentration-time curve from time zero to the time of the last measurable concentration, calculated using linear trapezoidal rule AUC0-inf Area under the concentration-time curve from time zero to infinity, calculated using linear trapezoidal rule %AUCextrap The portion of AUC determined by extrapolation t1/2 Apparent terminal elimination half-life CL/F or CL Total apparent body clearance Vz/F or Vz Apparent volume of distribution λz Terminal elimination rate constant

[2] = Solubility of AXN-001; format: physicochemical; details: neutral pH
[3] = human, plasma, single SC dose 16 mg, mean

Which results are given for `CC(C)NCCC[C@@H]1NC(=O)[C@@H](NC(=O)[C@H](Cc2ccccc2C(N)=O)NC(=O)[C@H](NC(=O)c2ncco2)C(C)C)CSSC[C@@H](C(=O)N[C@@H](Cc2cccnc2)C(N)=O)NC(=O)[C@H](Cc2ccccc2)NC(=O)[C@@H]2CCCN2C(=O)CNC(=O)[C@H](C(C)C)NC(=O)[C@H](CC(=O)O)NC1=O` [AXN-001, Oxazole-2-carbonyl-D-Val-Phe(2-Cbm)-c(Cys-Orn (iPr)-Asp-Val-Gly-Pro-Phe-Cys)-3Pal-NH2] (Oxazole2carbonyl-[dV][Phe(2-CONH2)]C[Orn(iPr)]DVGPFC[3Pal]-NH2; disulfide 3-10)?
level at 3 h ([1]; human, plasma, single SC dose 8 mg, mean, read-out: Plasma Concentration AXN-001): 72 ng/mL; level at 4 h ([1]; human, plasma, single SC dose 8 mg, nominal time 4 h, mean, read-out: Plasma Concentration AXN-001): 38.7 ng/mL; level at 6 h ([1]; human, plasma, single SC dose 8 mg, nominal time 6 h, mean, read-out: Plasma Concentration AXN-001): 13.9 ng/mL; level at 8 h ([1]; human, plasma, single SC dose 8 mg, nominal time 8 h, mean, read-out: Plasma Concentration AXN-001): 5.8 ng/mL; level at 12 h ([1]; human, plasma, single SC dose 8 mg, nominal time 12 h, mean, read-out: Plasma Concentration AXN-001): 0.38 ng/mL; AUC(0-inf) [1, 3]: 1250 ng·h/mL; AUC(0-t) [1, 3]: 1230 ng·h/mL; CL/F [1, 3]: 222 mL/min; Cmax [1, 3]: 381 ng/mL; Tmax [1, 3]: 0.958 h; half-life [1, 3]: 2.8 h; level at 0.08 h ([1]; human, plasma, single SC dose 16 mg, nominal time 0.08 h, mean, read-out: Plasma Concentration AXN-001): 27.4 ng/mL; level at 0.17 h ([1]; human, plasma, single SC dose 16 mg, nominal time 0.17 h, mean, read-out: Plasma Concentration AXN-001): 83.4 ng/mL; level at 0.25 h ([1]; human, plasma, single SC dose 16 mg, nominal time 0.25 h, mean, read-out: Plasma Concentration AXN-001): 139 ng/mL; level at 0.33 h ([1]; human, plasma, single SC dose 16 mg, nominal time 0.33 h, mean, read-out: Plasma Concentration AXN-001): 183 ng/mL; level at 0.5 h ([1]; human, plasma, single SC dose 16 mg, nominal time 0.50 h, mean, read-out: Plasma Concentration AXN-001): 294 ng/mL; level at 0.75 h ([1]; human, plasma, single SC dose 16 mg, nominal time 0.75 h, mean, read-out: Plasma Concentration AXN-001): 355 ng/mL; level at 1 h ([1]; human, plasma, single SC dose 16 mg, nominal time 1 h, mean, read-out: Plasma Concentration AXN-001): 380 ng/mL; level at 2 h ([1]; human, plasma, single SC dose 16 mg, nominal time 2 h, mean, read-out: Plasma Concentration AXN-001): 277 ng/mL; level at 3 h ([1]; human, plasma, single SC dose 16 mg, mean, read-out: Plasma Concentration AXN-001): 170 ng/mL; level at 4 h ([1]; human, plasma, single SC dose 16 mg, nominal time 4 h, mean, read-out: Plasma Concentration AXN-001): 96.8 ng/mL; level at 6 h ([1]; human, plasma, single SC dose 16 mg, nominal time 6 h, mean, read-out: Plasma Concentration AXN-001): 44 ng/mL; level at 8 h ([1]; human, plasma, single SC dose 16 mg, nominal time 8 h, mean, read-out: Plasma Concentration AXN-001): 23.7 ng/mL; level at 12 h ([1]; human, plasma, single SC dose 16 mg, nominal time 12 h, mean, read-out: Plasma Concentration AXN-001): 9.2 ng/mL; %AUCextrap ([1]; single SC dose 1 mg, mean): 5.37%; Vz/F ([1]; single SC dose 1 mg, mean): 19.1 L; λz ([1]; single SC dose 1 mg, mean): 0.535 h⁻¹; Plasma Concentration AXN-001 ([1]; single SC dose 1 mg, nominal time 0.08 h, mean): 4.96 ng/mL; Plasma Concentration AXN-001 ([1]; single SC dose 1 mg, nominal time 0.17 h, mean): 12.8 ng/mL; Plasma Concentration AXN-001 ([1]; single SC dose 1 mg, nominal time 0.25 h, mean): 17.9 ng/mL; Plasma Concentration AXN-001 ([1]; single SC dose 1 mg, nominal time 0.33 h, mean): 28.5 ng/mL; Plasma Concentration AXN-001 ([1]; single SC dose 1 mg, nominal time 0.50 h, mean): 34.8 ng/mL; Plasma Concentration AXN-001 ([1]; single SC dose 1 mg, nominal time 0.75 h, mean): 39.3 ng/mL; Plasma Concentration AXN-001 ([1]; single SC dose 1 mg, nominal time 4 h, mean): 7.47 ng/mL; Plasma Concentration AXN-001 ([1]; single SC dose 1 mg, nominal time 6 h, mean): 2.8 ng/mL; Plasma Concentration AXN-001 ([1]; single SC dose 1 mg, nominal time 8 h, mean): 0 ng/mL; Plasma Concentration AXN-001 ([1]; single SC dose 1 mg, nominal time 12 h, mean): 0 ng/mL; T10nM ([1]; single SC dose 1 mg): 12 min; T30nM ([1]; single SC dose 1 mg, marked *, 1 of 6 subjects reached 30nM): 19* min; %AUCextrap ([1]; single SC dose 2 mg, mean): 4.98%; Vz/F ([1]; single SC dose 2 mg, mean): 24.6 L; λz ([1]; single SC dose 2 mg, mean): 0.528 h⁻¹; Plasma Concentration AXN-001 ([1]; single SC dose 2 mg, nominal time 12 h, mean): 0 ng/mL; T10nM ([1]; single SC dose 2 mg): 9 min; T30nM ([1]; single SC dose 2 mg, marked *, 5 of 6 subjects reached 30nM): 21* min; %AUCextrap ([1]; single SC dose 4 mg, mean): 1.82%; Vz/F ([1]; single SC dose 4 mg, mean): 23.3 L; λz ([1]; single SC dose 4 mg, mean): 0.517 h⁻¹; T10nM ([1]; single SC dose 4 mg): 6 min; T30nM ([1]; single SC dose 4 mg): 11 min; T100nM ([1]; single SC dose 4 mg, marked *, 2/5 of cohort reached 100nM): 25* min; %AUCextrap ([1]; single SC dose 8 mg, mean): 1.58%; Vz/F ([1]; single SC dose 8 mg, mean): 28.7 L; λz ([1]; single SC dose 8 mg, mean): 0.481 h⁻¹; T10nM ([1]; single SC dose 8 mg): 3 min; T30nM ([1]; single SC dose 8 mg): 7 min; T100nM ([1]; single SC dose 8 mg): 21 min; %AUCextrap ([1]; single SC dose 16 mg, mean): 1.51%; Vz/F ([1]; single SC dose 16 mg, mean): 55.3 L; λz ([1]; single SC dose 16 mg, mean): 0.292 h⁻¹; T10nM ([1]; single SC dose 16 mg): 3 min; T30nM ([1]; single SC dose 16 mg): 7 min; T100nM ([1]; single SC dose 16 mg): 17 min; free plasma concentration (Figure 5) ([1]; within 30 minutes, compared with olcegepant, zavegepant, rimegepant and ubrogepant, consistent up to 120 minutes): much higher increase in free plasma concentration; solubility [2]: low
